Results as given in patent US20100113430A1, “THIOXANTHENE DERIVATES USEFUL TO TREAT INFECTIOUS DISEASES” (BKG PHARMA APS, priority 2007, published 2010).
Converted amounts (≈) assume the structure as drawn.

Experiments:
Type in all cases: cell-based
[1] = test system: Fluconazole Resistant Candida albicans clinical isolate; experiment: MIC (80% growth inhibition), broth microdilution NCCLS M27-A, fluconazole resistant Candida albicans; settings: Candida albicans
Method: The antimicrobial effect of N-dealkyl-trans-clopenthixol and N-dealkyl-trans-flupenthixol was studied by exposing cells to 0-8 μg/ml of the compounds in two-fold dilutions. Each experiment was repeated in triple duplicate. MIC values represent the mean values of two separate experiments.
Clinical Isolate of A Fluconazole Resistant Candida albicans from a Patient with Candidemia.
The isolates were subcultured for 24 h on Sabouraud glucose agar before susceptibility testing. Broth microdilution tests were performed according to NCCLS document M27-A (Ref: National Commitee for Clinical Laboratory Standards. (1997). Reference Method for Broth Dilution Antifungal Susceptibility Testing of Yeasts: Approved Standard M27-A. NCCLS, Wayne, Pa.)
Microtitre plates were read spectrophotometrically at 530 nm, after mixing the wells by pipetting to resuspend yeast sediments. The MIC was defined as the lowest drug dilution resulting in 80% growth inhibition.

[2] = test system: clinically relevant resistant bacterial isolate S. Aureus; experiment: Growth inhibition by cis/trans combinations, resistant isolate S. Aureus; settings: Cis-compound 16 μg/ml, Trans-compound 0 μg/ml
Method: (§1) Cell growth was tested using the Minimal Inhibitory Concentration (MIC) susceptibility tests by use of the microdilution broth method in accordance to the NCCLS Guidelines (NCCLS Guidelines, Methods for Dilution Antimicrobial Susceptibility Tests for Bacteria That Grow Aerobically; Approved Standard, Sixth Edition, Volume 23; Number 2). The minimum inhibitory concentration (MIC), is defined ad the lowest concentration of drug which inhibits growth of the test organism, in the sense that no visible growth is detected (total inhibition of growth). In example 2 MIC of the compounds used on fungal microorganisms was determined from the IC90 measurements according to NCCLS Guidelines.
A log phase culture of bacteria was diluted with fresh pre-warmed Mueller-Hinton medium and adjusted to a defined OD at 600 nm in order to give a final concentration of 1×10^4-5 bacteria/ml medium. The bacterial culture was transferred to microtiter-plates and culture was added to each well. Drug was added to the bacterial culture in the wells as two-fold dilution series of drug in order to give final concentrations ranging from 0.03 to 128 μg/ml. Trays were incubated at 37° C. by shaking in a robot analyzer, PowerWavex, software KC^4′ Kebo.Lab, Copenhagen, for 16 h and optical densities were measured at 600 nm during the incubation time in order to record growth curves. […]

Gram negative sp. = experiment: MIC/IC90 broad spectrum, Gram negative sp.; settings: 25 strains, 20 resistant
Method: as §1
(§2) A log phase culture of bacteria was diluted with fresh pre-warmed Mueller-Hinton medium and adjusted to a defined OD at 600 nm in order to give a final concentration of 1×10^4-5 bacteria/ml medium. The bacterial culture was transferred to microtiter-plates and culture was added to each well. Drug was added to the bacterial culture in the wells as two-fold dilution series of drug in order to give final concentrations ranging from 0.03 to 128 μg/ml. Trays were incubated at 37° C. by shaking in a robot analyzer, PowerWavex, software KC^4′ Kebo.Lab, Copenhagen, for 16 h and optical densities were measured at 600 nm during the incubation time in order to record growth curves. Wells containing bacterial culture without drug were used as controls to ensure correct inoculum size and bacterial growth during the incubation. Cultures were tested in order to detect contaminations. Each experiment was repeated in triplicate. MIC values represent the mean values of two separate triplicate experiments. Intra- and interassay variation was <5%.
(§3) Inhibition 90 (IC90) is defined as: OD responding a 90% growth inhibition.
(§4) A broad spectrum of bacteria were cultured and assayed as described above for susceptibility towards N-dealkyl-clopenthixol.

[3] = test system: Enterococcus faecalis resistant clinical isolates; experiment: MIC/IC90, resistant clinical isolates of Enterococcus faecalis
Method: as §1, §2, §3
(§5) Clinically relevant isolates were cultured and assayed as described above.

[4] = test system: Staphylococci, Micrococci. Including MRSA; experiment: MIC/IC90 broad spectrum, Staphylococci and Micrococci; settings: 30 strains, 20 resistant (20 MRSA)
Method: as §1, §2, §3, §4

[5] = test system: Candida glabrata Multiresistant isolate; experiment: MIC of cis- and trans-forms, Candida glabrata multiresistant isolate; settings: Example 4
Method: as §1
Cultured microorganisms were assayed as described above. Cis- and trans-isomers of N-dealkyl-clopenthixol was added to the cultures.

[6] = test system: multiresistant clinical isolate of Staphylococcus epidermidis; experiment: MIC, microdilution broth method (NCCLS), Staphylococcus epidermidis
Method: as §1
as §2, with “Drug was added to the bacterial culture in the wells as two-fold dilution series of drug in order to give final concentrations ranging from 0.03 to 128 μg/ml.” left out, “triplicate.” for “triplicate. MIC values represent the mean values of two separate triplicate experiments. Intra- and interassay variation was <5%.”
A clinically relevant isolate of Staphylococcus epidermidis was cultured and assayed as described above for susceptibility towards the compounds listed in table 1.

[7] = test system: Enterococcus faecium resistant clinical isolates; experiment: MIC/IC90, resistant clinical isolates of Enterococcus faecium
Method: as §1, §2
Inhibition 90 (IC90) is defined as: OD responding a 90% growth inhibition. […]
as §5

Streptococci = experiment: MIC/IC90 broad spectrum, Streptococci; settings: 30 strains, 20 resistant
Method: as §1, §2, §3, §4

[8] = test system: Candida albicans clinical isolate; experiment: MIC (90% growth inhibition), broth microdilution NCCLS M27-A, Candida albicans; settings: strain 1. Candida albicans FR (fluconazole resistant)
Method: as §1
The antibacterial effect of demethylated/dealkylated phenothiazine or thioxanthene compounds were studied by growth inhibition studies exposing cells to 0-32 μg/ml of drug. Each experiment was repeated in triplicate. MIC values represent the mean values of two separate triplicate experiments.
(§6) 4 clinical isolates of Candida sp. (including 3 fluconazole resistant isolates) were subcultured for 24 h on Sabouraud glucose agar before susceptibility testing. Broth microdilution tests were performed according to NCCLS document M27-A (Ref: National Committee for Clinical Laboratory Standards. (1997). Reference Method for Broth Dilution Antifungal Susceptibility Testing of Yeasts: Approved Standard M27-A. NCCLS, Wayne, Pa.). Microtitre plates were read spectrophotometrically at 530 nm, after mixing the wells by pipetting to resuspend yeast sediments. In this experiment, the MIC was defined as the lowest drug dilution resulting in 90% growth inhibition.

[9] = test system: Candida glabrata clinical isolates; experiment: MIC (90% growth inhibition), broth microdilution NCCLS M27-A, Candida glabrata
Method: as §1, with “Guidelines. […]” for “Guidelines.”
as §6

[10] = multiresistant clinical isolate of Staphylococcus epidermidis, Example 1
[11] = strain 2. Candida glabrata FR (fluconazole resistant)
[12] = strain 4. Candida glabrata FR (fluconazole resistant)

Which MIC [1] does the source give for `OC(Cn1cncn1)(Cn1cncn1)c1ccc(F)cc1F` [Fluconazole, reference compound] here?
Its MIC is 128 µg/mL (≈ 418 µM).

What does the source list for `Clc1ccc2c(c1)/C(=C\CCN1CCNCC1)c1ccccc1S2` [N-dealkyl-cis-clopenthixol, cis-1-(3-(2-chlorothioxanthen-9-ylidene)propyl)piperazine]?
Growth inhibition [2]: 100%; MIC (mean) (Gram negative sp.): >16 µg/mL; MIC ([3]; Enterococcus faecalis 1, VanA): >8 µg/mL; MIC ([3]; Enterococcus faecalis 2, VanA): >8 µg/mL; MIC ([3]; Enterococcus faecalis 3, VanA): >8 µg/mL; MIC ([3]; Enterococcus faecalis 4, VanB): >8 µg/mL; MIC ([3]; Enterococcus faecalis 5, Van B): >8 µg/mL; MIC ([3]; Enterococcus faecalis 6, VanB): >8 µg/mL; MIC ([3]; Enterococcus faecalis 7, VanA): >8 µg/mL; MIC ([3]; Enterococcus faecalis 8, HLAR): >8 µg/mL; MIC ([3]; Enterococcus faecalis 9, HLAR): >8 µg/mL; MIC ([3]; Enterococcus faecalis 10, BLR, CR): >8 µg/mL; MIC (mean) [4]: 16 µg/mL (≈ 44.8 µM); MIC [5]: >16 µg/mL; MIC ([6]; Staphylococcus epidermidis multiresistant isolate, Example 6, isomers alone and 1:1 mixture): >8 µg/mL; MIC [6, 10]: 16 µg/mL (≈ 44.8 µM); MIC ([7]; Enterococcus faecium 11, VanA): >8 µg/mL; MIC ([7]; Enterococcus faecium 12, VanA): >8 µg/mL; MIC ([7]; Enterococcus faecium 13, VanB): >8 µg/mL; MIC ([7]; Enterococcus faecium 14, HLAR): >8 µg/mL; MIC ([7]; Enterococcus faecium 15, HLAR): >8 µg/mL; MIC ([7]; Enterococcus faecium 16, BLR, CR): >8 µg/mL; MIC ([7]; Enterococcus faecium 17, VanB): >8 µg/mL; MIC ([7]; Enterococcus faecium 18, VanB): >8 µg/mL; MIC ([7]; Enterococcus faecium 19, VanB): >8 µg/mL; MIC ([7]; Enterococcus faecium multiresistant isolate, Example 4): 16 µg/mL (≈ 44.8 µM); MIC (mean) (Streptococci): 16 µg/mL (≈ 44.8 µM)

Which MIC [8] does the source give for `CNCCC=C1c2ccccc2Sc2ccc(Cl)cc21` [N-desmethyl-Chlorprothixen, reference compound] here?
Its MIC is 16 µg/mL (≈ 53 µM).

And the MIC [6, 10]?
Its MIC is 16 µg/mL (≈ 53 µM).

And the MIC [9, 11]?
The MIC was 16 µg/mL (≈ 53 µM).

And the MIC [9, 12]?
The MIC was 16 µg/mL (≈ 53 µM).

What about the MIC ([9]; strain 5. Candida glabrata) of the same compound?
The MIC was 16 µg/mL (≈ 53 µM).

For `CNCCCN1c2ccccc2Sc2ccc(Cl)cc21` [N-desmethyl-chlorpromazine, reference compound], which MIC [6, 10] is on record?
The MIC was 16 µg/mL (≈ 52.5 µM).

For “Desmethyl-perphenazin [reference compound]”, which MIC [8] is on record?
Its MIC is 16 µg/mL.

What about the MIC [6, 10] of the same compound?
Its MIC is 16 µg/mL.

What about the MIC [9, 11] of the same compound?
Its MIC is 16 µg/mL.

What about the MIC [9, 12] of the same compound?
The MIC was 16 µg/mL.

What about the MIC ([9]; strain 5. Candida glabrata) of the same compound?
The MIC was 16 µg/mL.

For `FC(F)(F)c1ccc2c(c1)N(CCCN1CCNCC1)c1ccccc1S2` [N-deshydroxy-ethyl-Fluphenazine, reference compound], which MIC [6, 10] is on record?
The MIC was 16 µg/mL (≈ 40.7 µM).

`Fc1ccc2c(c1)C(=CCCN1CCNCC1)c1ccccc1S2` [N-dealkyl-cis-flupenthixol, cis-1-(3-(2-fluor-thioxanthen-9-ylidene)propyl)piperazine] was tested. Which MIC [6, 10] did it give?
The MIC was 16 µg/mL (≈ 47 µM).
